# Results reported in patent publication US20220111094A1, “PATHOGEN DECONTAMINATION OF PERSONAL PROTECTIVE EQUIPMENT (PPE), FACE FILTERING R[…] (FFR) AND SINGLE USE MEDICAL DEVICES (SUD)” (priority 2020, published 2022).
# Assays:
# Assay type in all cases: cell-based
# [1] = test system: HIV-1; assay: SuperFluids CFI decontamination of medical devices (MDV experiments), residual virus by TCID50; settings: medical device components such as N95 masks
# Protocol: Virus was eluted from control (black bars) and treated (white bars) beads by incubating them with 1 ml of growth media for 30 minutes at room temperature. The amount of HIV p24 in the eluate was measured in an ELISA.
# The decontamination device prototype can be run in two modes: dynamic and static. In the static mode, virus-coated N95 face masks and other PPEs were placed in the CFI™ chamber and contacted with the SuperFluids™ for a specific amount of time at a specified pressure and temperature. The CFI™ chamber is be then rapidly exhausted into the expansion chamber. In the dynamic mode, SuperFluids™ is continuously flowed over the virus-coated glass beads at a rate of 20 mL/min, and slowly exhausted at the end of the experiment.
# [2] = test system: EMC; assay: CFI virus inactivation of EMC in a FBS matrix; settings: 50° C., 3,000 psig, previous data
# Protocol: Since Freon-22 use and production may be adversely impacted by future environmental concerns, we evaluated alternate refrigerants. Per the listing of thermodynamic properties in Table 1, Freon-23 (trifluoromethane) appears to be an excellent CFI™ candidate because: (i) it is non-chlorinated (the chlorine component of chlorofluorocarbons is thought to be responsible for their negative impact on the ozone layer): (ii) it has a low critical temperature of 25.9° C. (allows operation close to critical conditions while minimizing thermal denaturation of heat sensitive materials); and (iii) it has a relatively large dipole moment of 1.6 Debye (a large potential of solubilizing polar lipids and fats). From a comparison of previous data on the CFI™ virus inactivation of EMC in a FBS matrix, Freon-23 appears to be the best alternate to Freon-22. On the average, Freon-23 inactivated ˜3 logs vs. ˜6 logs of EMC at similar conditions of temperature (50° C.) and pressure (3,000 psig).
# [3] = test system: murine leukemia virus (MuLV); assay: CFI inactivation of murine leukemia virus at conditions of almost identical density; settings: 1,000 psig and 10° C., 2,000 psig and 22° C. and 4,000 psig and 40° C.
# Protocol: Temperature. In preliminary studies, all experiments were conducted at or around room temperature in order to maximize the […] of the time and temperature control. Under these conditions, most of the CFI experiments were conducted at sub-critical conditions that may not be optimal for virus inactivation. Temperature will have an impact on both the thermodynamic properties of the SuperFluids™, the configurational structure of the virus, and the integrity of the PPEs and SUDs. Temperature with pressure defines the density of SuperFluids™, and their solvation capacities and expansion factors; the former impacts viral kill by a phospholipid solubilization mechanism and the latter by an explosive decompression mechanism. […] CFI™ technology thus favors lower temperatures, which are better for material integrity. Lowering the temperature often requires the lowering of pressure because density is directly (but not linearly) proportional to pressure and inversely proportional to temperature.
compound,measurement,setting,value
O=C=O [Carbon dioxide],virus inactivation of HIV viruses associated with medical device components,[1],quite effective
"FC(F)Cl [Freon-22, chlorodifluoromethane]",logs of EMC inactivated (on the average),[2],~6 logs
"FC(F)F [Freon-23, trifluoromethane]",logs of EMC inactivated (on the average),[2],~3 logs
"[N-]=[N+]=O [N20, Nitrous Oxide]",inactivation of MuLV,[3],equally effective
